For one series, the system named is hPDE2A. The following applies: cited from earlier work.
Another series deals with hPDE10A. Also noted: method as in PMID 24189054, PMID 23651455. As to conditions: cited from earlier work.
On the set-up of series [1]: method as in PMID 24189054, PMID 23651455. As to conditions: monkeys, striatum; cited from earlier work.
The target of a further series is human recombinant PDE2A (Homo sapiens, UniProt O00408). Description: enzyme assay, inhibitory potency for human recombinant PDE2A. Format: biochemical. As to conditions: for Selectivity Ratio PDE10A/PDE2A: IC50 hPDE10A / IC50 hPDE2A; for IC50: human recombinant PDE2A, enzyme assay (BioCrea), read-out: IC50 hPDE2A.
A further series deals with human recombinant PDE10A (Homo sapiens, UniProt Q9Y233). Description: enzyme assay, inhibitory potency for human recombinant PDE10A. As to conditions: enzyme assay (BioCrea), read-out: IC50 hPDE10A. Format: biochemical.
On the set-up of series [2]: method as in PMID 24189054. As to conditions: rats, cited from earlier work.

Read-outs that look alike come from different tables or passages of the source.

Chain of human recombinant PDE2A (O00408 whole entry): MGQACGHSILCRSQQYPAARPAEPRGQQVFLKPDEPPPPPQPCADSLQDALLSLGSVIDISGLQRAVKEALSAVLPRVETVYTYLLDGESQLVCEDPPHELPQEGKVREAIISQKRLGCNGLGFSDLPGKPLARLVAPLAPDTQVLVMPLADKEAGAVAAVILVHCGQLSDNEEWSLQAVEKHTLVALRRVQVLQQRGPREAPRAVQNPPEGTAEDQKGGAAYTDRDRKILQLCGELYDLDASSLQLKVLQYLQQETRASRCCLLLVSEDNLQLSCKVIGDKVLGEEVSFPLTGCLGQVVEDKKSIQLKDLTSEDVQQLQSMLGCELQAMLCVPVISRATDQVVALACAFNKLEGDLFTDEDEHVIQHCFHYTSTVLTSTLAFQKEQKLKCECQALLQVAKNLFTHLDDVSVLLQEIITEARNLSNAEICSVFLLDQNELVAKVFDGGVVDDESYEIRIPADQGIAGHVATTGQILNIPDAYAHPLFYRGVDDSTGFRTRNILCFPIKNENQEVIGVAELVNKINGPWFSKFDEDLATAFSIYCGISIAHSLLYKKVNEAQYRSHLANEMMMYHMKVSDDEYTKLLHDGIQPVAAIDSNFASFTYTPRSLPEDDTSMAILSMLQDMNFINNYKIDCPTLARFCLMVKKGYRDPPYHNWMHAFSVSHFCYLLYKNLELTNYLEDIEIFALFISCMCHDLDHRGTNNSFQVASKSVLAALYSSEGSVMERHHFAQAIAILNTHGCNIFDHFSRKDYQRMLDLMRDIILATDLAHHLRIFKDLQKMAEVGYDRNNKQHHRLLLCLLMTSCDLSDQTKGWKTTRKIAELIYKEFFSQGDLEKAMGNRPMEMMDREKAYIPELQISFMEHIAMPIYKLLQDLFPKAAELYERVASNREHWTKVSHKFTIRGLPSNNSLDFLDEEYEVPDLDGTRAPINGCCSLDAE
Chain of human recombinant PDE10A (Q9Y233 whole entry): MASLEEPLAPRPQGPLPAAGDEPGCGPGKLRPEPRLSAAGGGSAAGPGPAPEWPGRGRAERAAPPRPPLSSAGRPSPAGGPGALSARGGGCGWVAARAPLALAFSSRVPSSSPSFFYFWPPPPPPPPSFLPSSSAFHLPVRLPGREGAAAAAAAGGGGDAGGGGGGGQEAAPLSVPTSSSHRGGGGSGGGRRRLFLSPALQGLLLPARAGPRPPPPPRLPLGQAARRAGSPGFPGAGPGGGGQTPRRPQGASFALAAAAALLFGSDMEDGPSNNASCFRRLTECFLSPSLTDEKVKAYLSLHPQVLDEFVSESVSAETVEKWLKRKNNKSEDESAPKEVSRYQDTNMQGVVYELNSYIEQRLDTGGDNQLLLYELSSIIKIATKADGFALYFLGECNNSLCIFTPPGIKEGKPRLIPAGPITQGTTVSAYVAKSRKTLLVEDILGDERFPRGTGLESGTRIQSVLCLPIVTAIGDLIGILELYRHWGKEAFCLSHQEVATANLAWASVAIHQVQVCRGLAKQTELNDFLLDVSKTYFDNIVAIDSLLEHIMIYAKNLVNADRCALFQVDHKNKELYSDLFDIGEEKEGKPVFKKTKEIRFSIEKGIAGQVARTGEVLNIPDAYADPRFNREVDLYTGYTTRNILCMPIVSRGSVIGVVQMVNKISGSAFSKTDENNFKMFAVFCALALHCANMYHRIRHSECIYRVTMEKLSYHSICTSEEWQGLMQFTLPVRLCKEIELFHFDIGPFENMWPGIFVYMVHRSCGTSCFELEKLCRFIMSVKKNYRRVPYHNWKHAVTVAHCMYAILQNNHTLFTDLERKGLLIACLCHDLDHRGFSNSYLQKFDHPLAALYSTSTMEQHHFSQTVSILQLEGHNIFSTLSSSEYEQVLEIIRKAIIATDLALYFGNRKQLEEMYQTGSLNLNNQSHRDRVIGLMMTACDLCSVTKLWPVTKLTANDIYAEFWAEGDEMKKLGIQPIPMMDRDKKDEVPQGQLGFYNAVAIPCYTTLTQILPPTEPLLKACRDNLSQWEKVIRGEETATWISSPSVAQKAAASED
From the text for human recombinant PDE10A: (§1) The IC50 values obtained by this assay represent relative measures of the respective target affinity of the compounds.
From the text for human recombinant PDE2A: as §1

In general, IC50 refers to the concentration at which inhibition is half-maximal. As for `CCCCCCC(C(C)O)n1cnc2c(N)ncnc21` (stereo not drawn) [EHNA, erythro-9-(2-hydroxy-3-nonyl)-adenine], in the series on hPDE2A (Figure 1), the IC50 was ~1000 nM.

In the case of `Cc1nc(-c2cnn(C)c2-c2ccc(C(F)(F)F)cc2)c2c(N3CC([18F])C3)ncnn12` [[^18F]PF-05270430], the IC50 was 0.5 nM in the series on hPDE2A (Pfizer PET ligand) and 3000 nM in the series on hPDE10A. Also, in series [1], the “uptake in PET studies” value was “rapid and high uptake”.

With `COc1ccc2nnc3c(C)nc(-c4cc(OCCCCF)ccc4F)n3c2n1` [TA4], the “Selectivity Ratio PDE10A/PDE2A” value on human recombinant PDE2A is reported as 125.1. The IC50 is 7.3 nM on human recombinant PDE2A and 913 nM at human recombinant PDE10A.

Regarding `COc1ccc2nnc3c(C)nc(-c4cc(OCCF)ccc4F)n3c2n1` [TA2, 9-(2-Fluoro-5-(2-fluoroethoxy)phenyl)-2-methoxy-7-methylimidazo[5,1-c]pyrido[2,3-e] [1,2,4]triazine], at human recombinant PDE2A, the “Selectivity Ratio PDE10A/PDE2A” value was 7.4 and the IC50 was determined as 10.4 nM. Besides, the IC50 on human recombinant PDE10A was determined as 77 nM.

Take `Cc1nc2ccc(CN3CCOCC3)cc2n2c(-c3c([18F])cccc3Cl)nnc12` [[^18F]B-23]: the “radiometabolites detected in the brain” value in series [2] (at 2 min p.i.) is recorded as 4 % of total activity; in series [2] (at 10 min p.i.) it was 10 % of total activity. In addition, the “regional accumulation in microPET imaging” value in series [2] is “highest accumulation of [^18F]B-23 has been observed in the striatum”.

Turning to `COc1ccc2nnc3c(C)nc(-c4cc(OCCCF)ccc4F)n3c2n1` [TA3], the “Selectivity Ratio PDE10A/PDE2A” value at human recombinant PDE2A turned out to be 27.9. Besides, the IC50 on human recombinant PDE2A was found to be 11.4 nM; on human recombinant PDE10A it was 318 nM.

`COc1ccc(Cc2nn3c(C(CCCc4ccccc4)C(C)O)nc(C)c3c(=O)[nH]2)cc1OC` (centres unmarked) [BAY 60-7550]: the IC50 in the series on hPDE2A (Figure 1) was ~5 nM.

(Values after article PMC6272448, “Synthesis, ^18F-Radiolabelling and Biological Characterization of Novel Fluoroalkylated Triazine Derivatives for in Vivo Imaging of Phosphodiesterase 2A in Brain via Positron Emission Tomography” (Molecules, 2015).)
